Laboratory results: patent publication US20250084097A1, “MACROCYCLIC AMIDE COMPOUNDS AND APPLICATION THEREOF” (Medshine Discovery Inc., priority 2021, published 2025)

Legend:
[1] = Body weight of animals in the in vivo efficacy assay; conditions: for Body weight of the mice compared to the control group (tolerance): 10 days of continuous administration, 10 mg/kg and 25 mg/kg
Protocol: (§1) Dosage according to mouse body weight: 10 μL/g. If the body weight decreases by more than 20%, the dosing regimen was adjusted accordingly.
(§2) The formulation and any modifications of this assay protocol were evaluated and approved by the Laboratory Animal Welfare Ethics Committee of the testing institution. The health status and death of animals were checked every day. Routine inspections included tumor growth, activity, diet, body weight, eyes, hair and other abnormal behaviors of animals. Tumor volume and body weight were measured three times a week (Monday, Wednesday and Friday). The tumor volume was measured with a vernier caliper, and the formula was TV=0.5 a×b^2, where a is the long diameter of a tumor and b is the short diameter of a tumor.
The body weight of assay animals was used as a reference index to indirectly determine drug toxicity.

[2] = tested on: Ba/F3-FL-EGFR (del19-T790M-C797S) cells; test: In vivo efficacy, Ba/F3-FL-EGFR-Del19-T790M-C797S cell homograft tumor model; parameters: species or system mouse; conditions: for Relative tumor proliferation rate T/C / Tumor growth inhibition rate TGI: Day 10
Protocol: Ba/F3-FL-EGFR (del19-T790M-C797S) cell line was cultured in RPMI1640 medium (Viva Cell)+10% fetal bovine serum (Viva Cell)+1% double-antibody (Penicillin Streptomycin solution, Gibco, USA) at 37° C., 5% CO2, and passaged 2-3 times a week. When the cell saturation was 80%-90%, cells were collected, counted and inoculated. When the cells in the logarithmic growth phase reached the required number for the assay, the cells were collected, and centrifuged at 1000 rpm for 5 min to remove the supernatant. The cells were resuspended with medium, and counted using a cell counter. According to the counting results, the original solution was diluted into a cell suspension with a concentration of 1*10^7 viable cells/mL, and the cell viability was 98.77%, P17 generation. The diluted cell suspension and matrix gel were diluted in a 1:1 ratio. After mixing well and placing on ice, the suspension was aspirated with a 1 mL sterile insulin syringe, and each mouse was subcutaneously inoculated with 0.2 mL of cell suspension in the right axilla. That is, each mouse was inoculated with 1*10^6 Ba/F3-FL-EGFR (del19-T790M-C797S) cells.
After the inoculation was completed, the tumor growth status was observed daily. When the average tumor volume reached approximately 100˜150 mm^3, the mice were randomly divided into groups according to tumor volume.
as §1, §2
Statistical analysis included the mean (Mean) and standard error (SEM) of tumor volume at each time point for each group. Statistical analysis was performed to evaluate differences between groups based on the data on the 10th day after administration. One way ANOVA post hoc test and Tamhane test were used to compare whether there was a significant difference in tumor volume between the treatment group and the control group. p<0.05 meaned a significant difference. Drug efficacy evaluation indicators included tumor volume and tumor weight to examine whether tumor growth was delayed, inhibited or cured. The anti-tumor efficacy of compounds was evaluated using the relative tumor proliferation rate T/C (%) or the tumor growth inhibition rate TGI (%). […] In principle, the evaluation criteria were: T/C (%) >40% or TGI (%) <40% represents ineffective; T/C (%)≤40% and p<0.05, or TGI (%)≥40% and p<0.05 represents effective.

[3] = 10 mg/kg/bid, day 0 after administration
[4] = 10 mg/kg/bid, day 3 after administration
[5] = 10 mg/kg/bid, day 5 after administration
[6] = 10 mg/kg/bid, day 7 after administration
[7] = 10 mg/kg/bid, day 10 after administration
[8] = 25 mg/kg/bid, day 0 after administration
[9] = 25 mg/kg/bid, day 3 after administration
[10] = 25 mg/kg/bid, day 5 after administration
[11] = 25 mg/kg/bid, day 7 after administration
[12] = 25 mg/kg/bid, day 10 after administration

Structure (SMILES) | Average body weight [1, 3] | Average body weight [1, 4] | Average body weight [1, 5] | Average body weight [1, 6] | Average body weight [1, 7] | Average body weight [1, 8] | Average body weight [1, 9] | Average body weight [1, 10] | Average body weight [1, 11] | Average body weight [1, 12] | Body weight of the mice compared to the control group (tolerance) [1] | Relative tumor proliferation rate T/C ([2]; 10 mg/kg/bid) | Tumor growth inhibition rate TGI ([2]; 10 mg/kg/bid) | Average tumor volume [2, 3] | Average tumor volume [2, 4] | Average tumor volume [2, 5] | Average tumor volume [2, 6] | Average tumor volume [2, 7] | Relative tumor proliferation rate T/C ([2]; 25 mg/kg/bid) | Tumor growth inhibition rate TGI ([2]; 25 mg/kg/bid) | further results
Cc1cc2cc(n1)-c1cnn(C)c1OC[C@H]1CC[C@H](C1)CN1/C(=N/C2=O)Nc2ccc(N=S(C)(C)=O)cc21 (single isomer, unassigned) [WX-027A] | 21.7 g | 21.9 g | 22.1 g | 22.1 g | 22.2 g | 21.0 g | 21.5 g | 21.6 g | 21.4 g | 21.8 g | no significant difference | 14% | 94% | 113 mm^3 | 123 mm^3 | 111 mm^3 | 183 mm^3 | 179 mm^3 | 7% | 102% | Average tumor volume [2, 8]: 112 mm^3; Average tumor volume [2, 9]: 105 mm^3; Average tumor volume [2, 10]: 96 mm^3; Average tumor volume [2, 11]: 108 mm^3; Average tumor volume [2, 12]: 86 mm^3
Cc1cc2cc(n1)-c1cnn(C)c1OCCC[C@@H](C)CN1/C(=N/C2=O)Nc2ccc(N=S(C)(C)=O)c(Cl)c21 [WX-019] | 20.6 g | 20.7 g | 20.8 g | 20.7 g | 20.9 g | 22.5 g | 23.4 g | 23.0 g | 22.8 g | 23.3 g | no significant difference | 8% | 101% | 113 mm^3 | 133 mm^3 | 140 mm^3 | 148 mm^3 | 106 mm^3 | 7% | 103% | Average tumor volume [2, 8]: 113 mm^3; Average tumor volume [2, 9]: 120 mm^3; Average tumor volume [2, 10]: 94 mm^3; Average tumor volume [2, 11]: 130 mm^3; Average tumor volume [2, 12]: 82 mm^3
